Source: patent publication US20110288007A1 (priority 2008, published 2011)

Assays:
Assay type in all cases: cell-based
Set-up in all cases: key: —: No effect (i.e. no significant difference between control [culture with no peptide] and culture with peptide); *: ~1 log effect (i.e. culture with peptide that's growth was ~1 log less than control); **: 1-2 log effect; ***: 2-4 log effect; ****: >4 log effect; “”: “Immediate effect” (i.e. loss of growth by at least 1 log compared to control immediately on addition of peptide [T = 0]
B. cepacia J2540 = system: B. cepacia J2540
[1] = system: B. anthracis Vegetative UM23-Cl2
F. tularensis LVS = system: F. tularensis LVS
B. thailandensis E264 = system: B. thailandensis E264
S. aureus ATCC29213 = conditions: peptide 102 μg/mL, reduction of number of bacteria vs control
F. novicida U112 = system: F. novicida U112
[2] = system: Y. pseudotuberculosis YPIII
[3] = system: Y. pseudotuberculosis IP32593

Row | Sequence | Effect of peptides after 4 hours incubation with bacteria, B. cepacia J2540 (B. cepacia J2540) | Effect of peptides after 4 hours incubation with bacteria, B. anthracis Vegetative UM23-Cl2 [1] | Effect of peptides after 4 hours incubation with bacteria, F. tularensis LVS (F. tularensis LVS) | Effect of peptides after 4 hours incubation with bacteria, B. thailandensis E264 (B. thailandensis E264) | Effect of peptides after 4 hours incubation with bacteria, S. aureus ATCC29213 (S. aureus ATCC29213) | Effect of peptides after 4 hours incubation with bacteria, F. novicida U112 (F. novicida U112) | Effect of peptides after 4 hours incubation with bacteria, Y. pseudotuberculosis YPIII [2] | Effect of peptides after 4 hours incubation with bacteria, Y. pseudotuberculosis IP32593 [3]
1 | LLGDFFRKSKEKIGKEFKRIVQRIKDFLRNLVPRTES [LL-37] | — | — | — | — | — | — | — | —
2 | GIGKFLHSAKKFGKAFVGEIMNS [Magainin II] |  |  | — | — | **** (>4 log effect) | — |  | —
